Assays:
[1] = test system: GPR158, AR and PSA expression in PHPECs; details: DHT 10 nM
Method: (§1) FIG. 2: Effects of an androgen on GPR158 expression. […] Total RNA (FIG. 2A-FIG. 2C) or cell lysates (FIG. 2E-FIG. 2G) were isolated and subjected to qRT-PCR and western blotting, respectively to estimate AR, PSA, GPR158 and beta-actin expression. […] Total RNA or the whole cell lysates were isolated and qRT-PCR and western blotting was performed, respectively to detect GPR158, AR, PSA and beta-actin levels (FIG. 2D) The mRNA level of the above indicated genes was considered 1 in cells grown in 10% FCS for calculating the relative fold difference of these genes in other experimental conditions. (FIG. 2A-FIG. 2H) The data represent three independent experiments.
(§2) For androgen starvation studies, LNCaP, PC-3, and DU145 cells were grown in 10% CSS.
(§3) Total RNA isolated from PCa cell lines with Aurum total RNA mini kit (Bio-Rad, Hercules, Calif.) was subjected to qRT-PCR analysis using iScript one-step RT-PCR kit with SYBR Green (Bio-Rad) on CFX96 Touch Real-Time PCR Detection System (Bio-Rad), according to the manufacturer's instructions. Relative quantification values of genes of interest were calculated as 2^−ΔΔCt by the comparative Ct method, where ΔΔCt=(Ct target mRNA of treated sample-Ct reference gene of treated sample)-(Ct target mRNA of control sample-Ct reference gene of control sample). The Inventors used beta-actin or GAPDH as a reference gene.
(§4) The whole cell lysates were prepared using radioimmunoprecipitation assay (RIPA) lysis buffer (50 mM Tris, 150 mM NaCl, 0.1% SDS, 0.5% Sodium Deoxycholate, 1% NP-40) spiked with a cocktail of protease inhibitors for 20 min, followed by centrifugation at 10,000 g for 10 min. Supernatants were collected and proteins in the extracts were separated by SDS-PAGE without boiling the samples and transferred to PVDF membranes. Membranes were probed with primary antibody against protein of interest and were developed by chemiluminescence with reagents Luminol enhancer solution and peroxide solution (GE Healthcare UK limited, Buckinghamshire, UK) and images were captured with Fujifilm imaging system (LAS-4000; Fujifilm, Tokyo, Japan). Protein loading was monitored by stripping and reprobing of the membrane with beta-actin antibody.

[2] = test system: GPR158, AR and PSA expression in LNCaP cells; details: DHT 10 nM
Method: as §1, §2, §3, §4

[3] = test system: GPR158, AR and PSA expression in C4-2B cells; details: DHT 10 nM
Method: as §1, §2, §3, §4

[4] = test system: GPR158 driven by a doxycycline inducible promoter; AR, PSA; experiment: Dox induction in lenti-GPR158 LNCaP cells (western blotting); type: cell-based, human
lenti-GPR158 LNCaP cells = experiment: Cell counting of lenti-GPR158 LNCaP cells after Dox treatment; type: cell-based, human; details: Dox 100 ng/mL

| SMILES | PSA mRNA and protein levels ([1]; PHPEC) | AR protein stabilization ([1]; PHPEC, 12 hrs) | increase of GPR158 mRNA and protein levels ([1]; PHPECs, 24 hrs, 10% CSS) | increase of GPR158 mRNA and protein levels ([2]; LNCaP cells, 24 hrs, 10% CSS) | PSA mRNA and protein levels ([2]; LNCaP) | AR protein stabilization ([2]; LNCaP, 12 hrs) | effect on GPR158 mRNA and protein levels ([3]; C4-2B cells, 10% CSS) | AR protein stabilization ([3]; C4-2B) | PSA mRNA and protein levels ([3]; C4-2B) | induction of GPR158 protein ([4]; Dox 100 ng/mL, at 4, 6 and 8 days (data not shown)) | increase in GPR158 protein levels ([4]; Dox 500 ng/mL, 3 days) | increase in cell numbers (lenti-GPR158 LNCaP cells; 3 days, normalized for Dox alone on parental cells) | increase in cell numbers (growth curve) (lenti-GPR158 LNCaP cells; at 4, 6 and 8 days vs untreated) |
| --- | --- | --- | --- | --- | --- | --- | --- | --- | --- | --- | --- | --- | --- |
| C[C@]12CCC(=O)C[C@@H]1CC[C@@H]1[C@@H]2CC[C@]2(C)[C@@H](O)CC[C@@H]12 [DHT, dihydrotestosterone] | increased significantly | AR protein stabilization | 3-4 fold | 3-4 fold | increased significantly | AR protein stabilization | no effect | not in C4-2B cells | increased significantly | – | – | – | – |
| C[C@H]1c2cccc(O)c2C(=O)C2=C(O)[C@]3(O)C(=O)C(C(N)=O)=C(O)[C@@H](N(C)C)[C@@H]3[C@@H](O)[C@@H]21 [Dox, doxycycline] | – | – | – | – | – | – | – | – | – | 3 fold | ~6 fold | 2.25 fold | approximately 2 fold |

Reference: patent publication US20180066064A1, “BIOTHERAPEUTICS TARGETING GPR158 FOR CANCER” (University of Southern California, priority 2015, published 2018)
